Structures can show the parent of a compound that is named as a salt. Where two headings read alike, the source gives them in different places.
Assay: Saline solubility at 1.00 mg/mL and 0.50 mg/mL (with pH by indicator paper)
Type: physicochemical
Conditions: for pH at 1.00 mg/mL of MGCD290 in saline: final concentration of hydroxamate 1 1.00 mg/mL, pH indicator paper; for solubility at 1 h: saline or isotonic, thermodynamic from solid, centrifuged, soluble = no precipitate formed
Procedure: Assays were performed to determine the saline solubility at 1.00 and 0.50 mg/ml and the stability of certain of the prodrug compounds of Examples 1-111. The following procedures were used.
Step 1. Sample preparation. An amount of the compound sample was precisely weighed to correspond to around 5 mg of the hydroxamate of compound 1, taking into account the mass of the leaving group and the salt factor if applicable. The sample was placed in a 16×125 mm glass screw cap tube. Saline was added so that the final concentration of hydroxamate 1 was 1.00 mg/mL. The pH was measured with pH indicator paper. The tube was shaken for 1 hour on a Vortex apparatus then centrifuged at 3000 rpm (1800 rcf) for 5 minutes. If the compound example was soluble (no precipitate formed) the procedure continued to step 2. If a precipitate formed then the sample was diluted with saline so that the final concentration of the hydroxamate of compound 1 was 0.50 mg/mL, and the shaking and centrifuging steps were repeated. If the compound example was soluble (no precipitate formed) the procedure continued to step 2. If a precipitate formed the sample was discarded. Step 2. HPLC analysis. A 500 μL aliquot of a sample solution prepared according to Step 1 was taken up into a 1.5 mL injection vial to which was added 500 μL of saline. The vial was shaken on a Vortex apparatus, injected into the HPLC instrument (UV detection, zero time point) and the retention time and purity of the sample compound were determined. The injection was repeated after 6 hours and 24 hours, and a comparison was made of the retention time, peak areas and level of degradation (if any) using the GDADI50 method.

[1] = 0.50 mg/mL as hydroxamate 1, shaken 1 hour, read-out: Soluble at 0.5 mg/mL of MGCD290 (Y/N)
[2] = 1.00 mg/mL as hydroxamate 1, shaken 1 hour, read-out: Soluble at 1.00 mg/mL of MGCD290 (Y/N)

Row | Compound | pH at 1.00 mg/mL of MGCD290 in saline | solubility at 1 h [1] [µg/mL] | solubility at 1 h [2] [µg/mL]
1 | CC(C)NC(=O)ONC(=O)Cc1ccc(CCCCc2ccccc2)cc1 [Compound 73, N-(Isopropylcarbamoyloxy)-2-(4-(4-phenylbutyl)phenyl)acetamide] | 4.5-5 | < 500 | < 1000
2 | O=C1COCCOCCOCC(=O)N[C@H](C(=O)NCCC(=O)ONC(=O)Cc2ccc(CCCCc3ccccc3)cc2)CCCCN1 [Compound 84] | 4.5-5 | < 500 | < 1000
3 | NCCCC[C@H](N)C(=O)N1CCC[C@H]1C(=O)ONC(=O)Cc1ccc(CCCCc2ccccc2)cc1 [Compound 106, N-((S)-1-((S)-2,6-Diaminohexanoyl)pyrrolidine-2-carbonyloxy)-2-(4-(4-phenylbutyl)phenyl) acetamide dihydrochloride] | 3.5-4 | < 500 | < 1000
4 | O=C(Cc1ccc(CCCCc2ccccc2)cc1)NOC(=O)CCC1CCCC1 [Compound 51] |  | < 500 | < 1000
5 | COCCOCCOCC(=O)NCCCC[C@H](NC(=O)COCCOCCOC)C(=O)ONC(=O)Cc1ccc(CCCCc2ccccc2)cc1 [Compound 71] | 4.5-5 | < 500 | < 1000
6 | O=C(Cc1ccc(CCCCc2ccccc2)cc1)NOC(=O)CN1C(=O)OC[C@@H]1c1ccccc1 [Compound 52A] | 4.5-5 | < 500 | < 1000
7 | COCCOCCOCCOCCOCC(=O)NC[C@H](C)C(=O)ONC(=O)Cc1ccc(CCCCc2ccccc2)cc1 [Compound 87, (S)—N-(2-Methyl-3-oxo-3-(2-(4-(4-phenylbutyl)phenyl)acetamidooxy)propyl)-2,5,8,11,14-pentaoxahexadecan-16-amide] | 4.5-5 | < 500 | < 1000
8 | Cl.O=C(Cc1ccc(CCCCc2ccccc2)cc1)NOC(=O)COC1CCNCC1 [Compound 125, 2-(4-(4-phenylbutyl)phenyl)-N-(2-(piperidin-4-yloxy)acetoxy)acetamide hydrochloride] | 4.5-5 | < 500 | < 1000
9 | O=C1COCCOCC(=O)N[C@H](C(=O)NCCC(=O)ONC(=O)Cc2ccc(CCCCc3ccccc3)cc2)CCCCN1 [Compound 83, (S)-6,14-Dioxo-N-(3-oxo-3-(2-(4-(4-phenylbutyl)phenyl)acetamidooxy)propyl)-1,4-dioxa-7,13-diazacyclopentadecane-8-carboxamide] | 4.5-5 | < 500 | < 1000
10 | COCCOCCOCCOCCOCC(=O)NCCCC[C@H](NC(=O)COCCOCCOCCOCCOC)C(=O)NCCC(=O)ONC(=O)Cc1ccc(CCCCc2ccccc2)cc1 [Compound 69] | 4.5-5 |  | > 1000
11 | COCCC(=O)ONC(=O)Cc1ccc(CCCCc2ccccc2)cc1 [Compound 52B] |  | < 500 | < 1000
12 | O=C(Cc1ccc(CCCCc2ccccc2)cc1)NOC(=O)CC1CC1 [Compound 52C] |  | < 500 | < 1000
13 | COC(=O)NCC1(C(=O)ONC(=O)Cc2ccc(CCCCc3ccccc3)cc2)CC1 [Compound 53] | 4.5-5 | < 500 | < 1000
14 | CC(=O)ONC(=O)Cc1ccc(CCCCc2ccccc2)cc1 [Compound 52D] |  | < 500 | < 1000
15 | COCCOCCOCC(=O)NCCC(=O)ONC(=O)Cc1ccc(CCCCc2ccccc2)cc1 [Compound 60] | 4.5-5 | < 500 | < 1000

The next lines start with the values.

Row | pH at 1.00 mg/mL of MGCD290 in saline | solubility at 1 h [1] [µg/mL] | solubility at 1 h [2] [µg/mL] | Compound
16 | 4.5-5 | < 500 | < 1000 | COCCOCC(=O)NCCCC[C@H](NC(=O)COCCOC)C(=O)N1CCC[C@H]1C(=O)ONC(=O)Cc1ccc(CCCCc2ccccc2)cc1 [Compound 108]
17 | 4.5-5 | < 500 | < 1000 | COCCOCCOCCOCCOCCOCC(=O)N1CCC(OCC(=O)ONC(=O)Cc2ccc(CCCCc3ccccc3)cc2)CC1 [Compound 127]
18 | 4.5-5 | < 500 | < 1000 | COCCOCC(=O)NCCC[C@H](NC(=O)COCCOC)C(=O)NCCC(=O)ONC(=O)Cc1ccc(CCCCc2ccccc2)cc1 [Compound 158]
19 | 4.5-5 | < 500 | < 1000 | COCCOCCOCCOCCOCCOCC(=O)NCC[C@H](NC(=O)COCCOCCOCCOCCOCCOC)C(=O)NCCC(=O)ONC(=O)Cc1ccc(CCCCc2ccccc2)cc1 [Compound 150]
20 | 4.5-5 | < 500 | < 1000 | COCCC(=O)NCC[C@H](NC(=O)CCOC)C(=O)NCCC(=O)ONC(=O)Cc1ccc(CCCCc2ccccc2)cc1 [Compound 152]
21 | 4.5-5 | < 500 | < 1000 | COCCC(=O)NCCC[C@H](NC(=O)CCOC)C(=O)NCCC(=O)ONC(=O)Cc1ccc(CCCCc2ccccc2)cc1 [Compound 156]
22 | 4.5-5 | < 500 | < 1000 | COCCOCCOCCOCCOCC(=O)NCC[C@H](NC(=O)COCCOCCOCCOCCOC)C(=O)NCCC(=O)ONC(=O)Cc1ccc(CCCCc2ccccc2)cc1 [Compound 149]
23 | 4.5-5 | < 500 | < 1000 | COCCOCCOCCOCCOCC(=O)NCCC[C@H](NC(=O)COCCOCCOCCOCCOC)C(=O)NCCC(=O)ONC(=O)Cc1ccc(CCCCc2ccccc2)cc1 [Compound 160]
24 | 4.5-5 | < 500 | < 1000 | COCCC(=O)NC[C@H](NC(=O)CCOC)C(=O)NCCC(=O)ONC(=O)Cc1ccc(CCCCc2ccccc2)cc1 [Compound 144]
25 | 4.5-5 |  | > 1000 | COCCOCCOCC(=O)NCCCC[C@H](NC(=O)COCCOCCOC)C(=O)NCC1(C(=O)ONC(=O)Cc2ccc(CCCCc3ccccc3)cc2)CC1 [Compound 162]
26 | 4.5-5 | < 500 | < 1000 | COCCOCC(=O)NCCCC[C@H](NC(=O)COCCOC)C(=O)NCC1(C(=O)ONC(=O)Cc2ccc(CCCCc3ccccc3)cc2)CC1 [Compound 161]
27 | 4.5-5 | < 500 | < 1000 | CC(=O)OCC(=O)NCCC[C@H](NC(=O)COC(C)=O)C(=O)NCCC(=O)ONC(=O)Cc1ccc(CCCCc2ccccc2)cc1 [Compound 157]
28 | 5.5-6 | < 500 | < 1000 | COCCOCCOCCOCCOCC(=O)N1CCC(CCC(=O)ONC(=O)Cc2ccc(CCCCc3ccccc3)cc2)CC1 [Compound 113]
29 | 4.5-5 | < 500 | < 1000 | COCCOCCOCC(=O)N1CCC(CC(=O)ONC(=O)Cc2ccc(CCCCc3ccccc3)cc2)CC1 [Compound 115]
30 | 4.5-5 | < 500 | < 1000 | CC(=O)OCC(=O)NCCCC[C@H](NC(=O)COC(C)=O)C(=O)NCCC(=O)ONC(=O)Cc1ccc(CCCCc2ccccc2)cc1 [Compound 154]
31 | 4.5-5 |  | > 1000 | COCCOCCOCCOCCOCCOCC(=O)NCCCC[C@H](NC(=O)COCCOCCOCCOCCOCCOC)C(=O)NCCCC(=O)ONC(=O)Cc1ccc(CCCCc2ccccc2)cc1 [Compound 103]
32 | 4.5-5 | < 500 | < 1000 | COCCOCC(=O)NC[C@H](NC(=O)COCCOC)C(=O)NCCC(=O)ONC(=O)Cc1ccc(CCCCc2ccccc2)cc1 [Compound 145]
33 | 4.5-5 | < 500 | < 1000 | COCCOCCOCC(=O)N1CCC(C(=O)ONC(=O)Cc2ccc(CCCCc3ccccc3)cc2)CC1 [Compound 119]
34 | 5-5.5 |  | > 1000 | COCCOCCOCC(=O)NCCCC[C@H](N)C(=O)NCCC(=O)ONC(=O)Cc1ccc(CCCCc2ccccc2)cc1.Cl [Compound 142, (S)-2-Amino-6-(2-(2-(2-methoxyethoxy)ethoxy)acetamido)-N-(3-oxo-3-(2-(4-(4-phenylbutyl)phenyl)acetamidooxy)propyl) hexanamide hydrochloride]
35 | 4.5-5 | < 500 | < 1000 | COC(=O)NCCCC[C@H](NC(=O)OC)C(=O)NCCC(=O)ONC(=O)Cc1ccc(CCCCc2ccccc2)cc1 [Compound 155]
36 | 4.5-5 |  | > 1000 | COCCOCCOCCOCC(=O)NCCCC[C@H](NC(=O)COCCOCCOCCOC)C(=O)NCCCC(=O)ONC(=O)Cc1ccc(CCCCc2ccccc2)cc1 [Compound 101]

From patent US20150203517A1, “Prodrugs of Compounds that Enhance Antifungal Activity and Compositions of Said Prodrugs” (priority 2014, published 2015)
